24 compounds from PMC7686273 (Bioorganic & medicinal chemistry letters, 2020) can be followed below.

One data set has as its target rat mGlu7 (Rattus norvegicus, UniProt P35400). The data set is described as follows: calcium mobilization assay with rat mGlu7/Gα15/HEK cells. It counts as cell-based. (Calcium assays in cells follow changes in intracellular calcium, usually with a dye or a luminescent sensor.)
A short description of another data set: clearance in vivo. Particulars: plasma.
Data set [1] is described as follows: stability under cell-based assay conditions. It is filed as physicochemical. Particulars: cell buffer.

rat mGlu7, sequence (P35400 35-915): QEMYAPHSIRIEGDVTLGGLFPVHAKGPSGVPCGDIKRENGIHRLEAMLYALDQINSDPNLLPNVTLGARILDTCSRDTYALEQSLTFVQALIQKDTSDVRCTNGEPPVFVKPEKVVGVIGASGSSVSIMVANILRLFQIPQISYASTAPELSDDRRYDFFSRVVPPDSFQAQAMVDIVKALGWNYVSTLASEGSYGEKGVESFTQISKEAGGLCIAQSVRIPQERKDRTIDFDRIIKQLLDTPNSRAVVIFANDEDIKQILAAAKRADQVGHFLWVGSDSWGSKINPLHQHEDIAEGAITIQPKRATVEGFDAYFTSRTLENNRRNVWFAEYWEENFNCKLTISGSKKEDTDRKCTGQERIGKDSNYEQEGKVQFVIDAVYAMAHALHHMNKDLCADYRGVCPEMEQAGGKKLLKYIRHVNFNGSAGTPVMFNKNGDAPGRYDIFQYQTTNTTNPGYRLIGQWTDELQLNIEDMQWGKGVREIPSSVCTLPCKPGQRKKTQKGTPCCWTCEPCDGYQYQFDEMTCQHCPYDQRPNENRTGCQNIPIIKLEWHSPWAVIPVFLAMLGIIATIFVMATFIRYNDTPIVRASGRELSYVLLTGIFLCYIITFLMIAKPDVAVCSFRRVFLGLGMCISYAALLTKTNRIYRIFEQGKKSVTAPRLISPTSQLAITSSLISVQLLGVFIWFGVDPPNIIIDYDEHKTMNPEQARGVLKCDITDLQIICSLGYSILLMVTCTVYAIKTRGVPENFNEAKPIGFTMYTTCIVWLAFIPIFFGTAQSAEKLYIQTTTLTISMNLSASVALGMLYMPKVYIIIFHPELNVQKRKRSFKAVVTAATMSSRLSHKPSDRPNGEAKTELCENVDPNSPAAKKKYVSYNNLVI

As to `CCOC(=O)c1cnc2c(OC)cccc2c1N1CCN(c2ccccc2Cl)CC1` [11d], the “mGlu7 NAM activity in words” value at rat mGlu7 is recorded as “lost activity”.

`CCOC(=O)c1cnc2c(OC)cccc2c1N1CCN(c2ccccc2C)CC1` [11e]: at rat mGlu7, the “mGlu7 NAM activity in words” value is on record as “lost activity”.

Take `CCOC(=O)c1cnc2c(OC)cccc2c1N1CCN(c2ccccc2C#N)CC1` [11f]: at rat mGlu7, the “mGlu7 NAM activity in words” value was “lost activity”.

As for `CCOC(=O)c1cnc2c(OC)cccc2c1N1CCN(c2ccccc2F)CC1` [11h], the “mGlu7 NAM activity in words” value on rat mGlu7 is reported as “lost activity”.

With `CCOC(=O)c1cnc2c(OC)cccc2c1N1CCN(c2ccc(OC)cc2OC)CC1` [11i], the “mGlu7 NAM activity in words” value on rat mGlu7 is reported as “retained mGlu7 NAM potency”.

`CCOC(=O)c1cnc2c(OC)cccc2c1N1CCN(c2c(OC)cccc2OC)CC1` [11j]: the “mGlu7 NAM activity in words” value on rat mGlu7 is on record as “retained mGlu7 NAM potency”.

Take `CCOC(=O)c1cnc2c(OC)cccc2c1N1CCN(c2cccnc2OC)CC1` [11l]: the “mGlu7 NAM activity in words” value at rat mGlu7 was “modest potency”.

As for `CCOC(=O)c1cnc2c(OC)cccc2c1N1CCN(c2nccnc2OC)CC1` [11m], at rat mGlu7, the “mGlu7 NAM activity in words” value is recorded as “modest potency”.

`CCOC(=O)c1cnccc1N1CCN(c2ccccc2OC)CC1` [13a]: at rat mGlu7, the “fold loss of mGlu7 NAM potency relative to 8” value was ~ 6.5 fold.

For the compound `CCOC(=O)c1cnc2ccsc2c1N1CCN(c2ccccc2OC)CC1` [13b], the “fold loss of mGlu7 NAM potency relative to 8” value at rat mGlu7 is on record as ~ 6.5 fold.

Take `CCOC(=O)c1cnc2sccc2c1N1CCN(c2ccccc2OC)CC1` [13c]: the “fold loss of mGlu7 NAM potency relative to 8” value at rat mGlu7 is on record as ~ 6.5 fold.

Take `CCOC(=O)c1ccc2c(OC)cccc2c1N1CCN(c2ccccc2OC)CC1` [13d]: the “mGlu7 NAM activity in words” value on rat mGlu7 is “inactive”.

On to `CCOC(=O)c1cnc2c(OC)cc(OC)cc2c1N1CCN(c2ccccc2OC)CC1` [13f], for which the “mGlu7 NAM activity in words” value on rat mGlu7 was “equipotent to 8”.

`CCOC(=O)c1cnc2c(OC)cccc2c1N1CCN(c2ccccc2OC)C(C)C1` (stereo not drawn) [14a]: on rat mGlu7, the “fold loss of mGlu7 NAM potency relative to 8” value was ~ 2 fold.

As for `CCOC(=O)c1cnc2c(OC)cccc2c1N1CCN(c2ccccc2OC)CC1C` (stereo not drawn) [14b], on rat mGlu7, the “fold loss of mGlu7 NAM potency relative to 8” value is listed as ~ 2 fold.

Take `CCOC(=O)c1cnc2c(OC)cccc2c1N(C)CCN(C)c1ccccc1OC` [14c]: the “fold loss of mGlu7 NAM potency relative to 8” value on rat mGlu7 is ~ 6 fold.

Take `CCOC(=O)c1cnc2c(OC)cccc2c1C1C2CC1CN(c1ccccc1OC)C2` (stereo not drawn) [14f]: the “mGlu7 NAM activity in words” value at rat mGlu7 is “inactive”.

`CCOC(=O)c1cnc2c(OC)cccc2c1C1CC2CC(C1)N2c1ccccc1OC` (stereo not drawn) [14g]: on rat mGlu7, the “mGlu7 NAM activity in words” value was “inactive”.

`CCOC(=O)c1cnc2c(OC)cccc2c1N1CC2(CN(c3ccccc3OC)C2)C1` [14i]: the “mGlu7 NAM activity in words” value at rat mGlu7 was “not productive”.

The compound `CCOC(=O)c1cnc2c(OC)cccc2c1-c1cnc(-c2ccccc2OC)c(OC)c1` [15h] returned a clearance in “clearance in vivo” of 70 mL/min/kg.

Consider `CCOC(=O)c1cnc2c(OC)cccc2c1-c1ccn(Cc2ccccc2OC)c1` [15j], for which, at rat mGlu7, the “mGlu7 NAM activity in words” value is recorded as “competent surrogate”.

Regarding `CCOC(=O)c1cnc2c(OC)cccc2c1N1CCN(c2ccccc2OC)CC1` [compound 8], the “stability of the ester under cell-based assay conditions” value in data set [1] was “stable”.

As for `CCOC(=O)c1cnc2c(OC)cc(OC)cc2c1-c1ccc(-c2ccccc2OC)nc1` [compound 18], at rat mGlu7, the “mGlu7 NAM activity in words” value is “sub-micromolar”.

`CCOC(=O)c1cnc2c(OC)cc(OC)cc2c1-c1ccc(-c2ccccc2OCC)nc1` [compound 19]: the “mGlu7 NAM activity in words” value on rat mGlu7 is “sub-micromolar”.

In general, clearance refers to the rate of elimination divided by the concentration. Read a low clearance as inefficient removal.
